Data: patent US8637683B2, “Macrocyclic lactone derivatives for the treatment of cancer” (Piramal Enterprises Limited, priority 2009, dated 2014)
≈ marks a conversion by molar mass, not a printed value. Where “and” joins values, the source holds several entries; their conditions need not be identical. Equal entries are not always repeated. Where two headings read alike, the source gives them in different places.

Experiments:
[1] = tested on: CAL 27; assay: Monolayer assay (modified propidium iodide), CAL 27; type: cell-based, human; settings: CAL 27, Head and Neck, 4 days of treatment
Excerpt: (§1) Oncotest GmbH, Germany's proprietary tumor cell line panel comprises 40 cell lines. These cell lines were derived from 15 different tumor histotypes, each represented by 1 to 6 different cell lines. Cell lines were established from cancer of the bladder (3), colon (4), head and neck (1), lung (6), breast (3), pancreas (3), prostate (4), ovary (2), kidney (3), liver (1), stomach (1) and the uteri body (1), as well as from melanoma (3), sarcoma (2) and pleuramesothelioma (3). Out of these 40 cell lines, 24 cell lines were established at Oncotest, from patient-derived tumor xenografts. […]
(§2) Stock solutions of the test compounds (330 μg/mL in DMSO) were prepared and stored in small aliquots (200 μL) at −20° C. […] Each concentration was evaluated in triplicate. […]
(§3) Cells were plated in 96-well flat-bottom microtiter plates at a cell density of 4,000 to 10,000 cells/well. […] To measure the viable cell number, the remaining adherent cells were killed and permeabilized by repeated freezing and thawing and PI fluorescence was measured using the Cytofluor 4000 microplate reader (excitation λ=530 nm, emission λ=620 nm), which was a measure for the number of cells which survived treatment. […] IC-values were calculated based on the principle of linear two-point curve fit. […]

[2] = tested on: MCF 7; assay: Monolayer assay (modified propidium iodide), MCF 7; type: cell-based, human; settings: MCF 7, Mammary, 4 days of treatment
Excerpt: as §1, §2, §3

[3] = tested on: LXF 526L; assay: Monolayer assay (modified propidium iodide), LXF 526L; type: cell-based, human; settings: Lung, 4 days of treatment
Excerpt: (§4) Oncotest GmbH, Germany's proprietary tumor cell line panel comprises 40 cell lines. These cell lines were derived from 15 different tumor histotypes, each represented by 1 to 6 different cell lines. Cell lines were established from cancer of the bladder (3), colon (4), head and neck (1), lung (6), breast (3), pancreas (3), prostate (4), ovary (2), kidney (3), liver (1), stomach (1) and the uteri body (1), as well as from melanoma (3), sarcoma (2) and pleuramesothelioma (3). Out of these 40 cell lines, 24 cell lines were established at Oncotest, from patient-derived tumor xenografts. The other 16 cell lines were either provided by the NCI (Bethesda; MD, USA) or were purchased from ATCC (Rockville, Md., USA) or DSMZ (Braunschweig, Germany).
(§5) Cell lines were routinely passaged once or twice weekly and maintained in culture for upto 20 passages. All cells were grown at 37° C. in a humidified atmosphere with 5% CO2 in RPMI 1640 medium supplemented with 10% (v/v) fetal calf serum (FCS) and 0.1 mg/mL gentamicin (medium and all other components from PAA, Cölbe, Germany). […]
as §2
as §3, with “treatment. Pharmacological effects on cell proliferation and survival were expressed as Test/Control×100 (% T/C) values, with T and C representing the fluorescence read-outs for wells with and without test compound, respectively, i.e. T/C represents the ratio of viable cell numbers following incubation of cell line with/without test compound.” for “treatment.”

[4] = tested on: PAXF 546L; assay: Monolayer assay (modified propidium iodide), PAXF 546L; type: cell-based, human; settings: Pancreas, 4 days of treatment
Excerpt: as §1, §2, §3

[5] = tested on: GXF 251 L; assay: Monolayer assay (modified propidium iodide), GXF 251 L; type: cell-based, human; settings: Gastric, 4 days of treatment
Excerpt: as §1, §2, §3

[6] = tested on: LIXF 575L; assay: Monolayer assay (modified propidium iodide), LIXF 575L; type: cell-based, human; settings: Liver, 4 days of treatment
Excerpt: as §1, §2, §3

[7] = tested on: PC3M; assay: Monolayer assay (modified propidium iodide), PC3M; type: cell-based, human; settings: Prostate, 4 days of treatment
Excerpt: as §1, §2, §3

[8] = tested on: PANC 1; assay: Monolayer assay (modified propidium iodide), PANC 1; type: cell-based, human; settings: PANC 1, Pancreas, 4 days of treatment
Excerpt: as §1, §2, §3

[9] = tested on: panel of 40 human tumor cell lines; assay: Monolayer assay, panel of 40 human tumor cell lines; type: cell-based
Excerpt: as §4
Cell lines were routinely passaged once or twice weekly and maintained in culture for upto 20 passages. All cells were grown at 37° C. in a humidified atmosphere with 5% CO2 in RPMI 1640 medium supplemented with 10% (v/v) fetal calf serum (FCS) and 0.1 mg/mL gentamicin (medium and all other components from PAA, Cölbe, Germany). Authenticity of all cell lines was proven at the DSMZ by STR (short tandem repeat) analysis, a PCR based DNA-fingerprinting methodology.
Stock solutions of the test compounds (330 μg/mL in DMSO) were prepared and stored in small aliquots (200 μL) at −20° C. An aliquot of the stock solution was thawed on the day of use and stored at room temperature prior to and during dosing. The subsequent dilutions were done with complete RPMI 1640 cell culture medium as follows: the stock solution was diluted 1:22 followed by serial dilutions finally resulting in a (compared to the test concentration) 15-fold higher concentration. For the final dilution step (1:15), 10 μL/well of the respective compound solution was directly added to 140 μL/well culture medium. Test compounds were tested at […]. Each concentration was evaluated in triplicate.
A modified propidium iodide assay was used to assess the effect of the test compounds on the growth of the human tumor cell lines and was designed as in reference, Anti-cancer Drugs, 6, 522-532, (1995), the disclosure of which is incorporated by reference for the teaching of the assay.
Cells were plated in 96-well flat-bottom microtiter plates at a cell density of 4,000 to 10,000 cells/well. After a 24 h recovery period to allow the cells to resume exponential growth, the test compounds were applied at five concentrations in log increments in triplicates in two independent runs. After 4 days of treatment, the medium with/without test compounds including all floating (i.e., dead) cells was aspirated and replaced by 200 μL of an aqueous propidium iodide (PI) solution (7 μg/mL). To measure the viable cell number, the remaining adherent cells were killed and permeabilized by repeated freezing and thawing and PI fluorescence was measured using the Cytofluor 4000 microplate reader (excitation λ=530 nm, emission λ=620 nm), which was a measure for the number of cells which survived treatment. Pharmacological effects on cell proliferation and survival were expressed as Test/Control×100 (% T/C) values, with T and C representing the fluorescence read-outs for wells with and without test compound, respectively, i.e. T/C represents the ratio of viable cell numbers following incubation of cell line with/without test compound. Based on the T/C values IC50 and IC70 values, being the drug concentration necessary to inhibit cell growth by 50% (T/C=50%) and 70% (T/C=30%), respectively, were determined by plotting compound concentration versus cell viability (T/C). IC-values were calculated based on the principle of linear two-point curve fit. […]

[10] = tested on: HCT 116; assay: Monolayer assay (modified propidium iodide), HCT 116; type: cell-based, human; settings: HCT 116, Colon, 4 days of treatment
Excerpt: as §1, §2, §3

[11] = tested on: PXF 1752L; assay: Monolayer assay (modified propidium iodide), PXF 1752L; type: cell-based, human; settings: Pleuramesothelioma, 4 days of treatment
Excerpt: as §1, §2, §3

[12] = tested on: HT 29; assay: Monolayer assay (modified propidium iodide), HT 29; type: cell-based, human; settings: HT 29, Colon, 4 days of treatment
Excerpt: as §1, §2, §3

[13] = tested on: DU 145; assay: Monolayer assay (modified propidium iodide), DU 145; type: cell-based, human; settings: DU 145, Prostate, 4 days of treatment
Excerpt: as §1, §2, §3

[14] = tested on: RXF 486L; assay: Monolayer assay (modified propidium iodide), RXF 486L; type: cell-based, human; settings: Renal, 4 days of treatment
Excerpt: as §1, §2, §3

[15] = tested on: T 24; assay: Monolayer assay (modified propidium iodide), T 24; type: cell-based, human; settings: T 24, Bladder, 4 days of treatment
Excerpt: as §4, §5, §2
as §3, with “treatment. Pharmacological effects on cell proliferation and survival were expressed as Test/Control×100 (% T/C) values, with T and C representing the fluorescence read-outs for wells with and without test compound, respectively, i.e. T/C represents the ratio of viable cell numbers following incubation of cell line with/without test compound.” for “treatment.”

[16] = tested on: RXF 1781L; assay: Monolayer assay (modified propidium iodide), RXF 1781L; type: cell-based, human; settings: Renal, 4 days of treatment
Excerpt: as §1, §2, §3

C/C=C/C(O)C(C)/C=C/C(=N\O)C(C)C(O)C(C)C1OC(=O)/C(OC)=C/C(C)=C/C(C)C(O)C(CC)C(O)C(C)C/C(C)=C/C=C/C1OC (stereo not shown) [Example 7, (3Z,5E,13E,15E)-18-((5Z,6E,10E)-3,9-Dihydroxy-5-(hydroxymino)-4,8-dimethyldodeca-6,10-dien-2-yl)-9-ethyl-8,10-dihydroxy-3,17-dimethoxy-5,7,11,13-tetramethyl oxacyclooctadeca-3,5,13,15-tetraen-2-one]
IC70 [1]: 1.0 ng/mL (≈ 1.45 nM) | IC50 ([1]; Homo sapiens, 96 h): < 0.1 ng/mL | IC50 ([2]; Homo sapiens, MCF7, 96 h): 1 ng/mL (≈ 1.45 nM) | IC70 [2]: 4.0 ng/mL (≈ 5.8 nM) | IC50 ([3]; Homo sapiens, 96 h): < 0.1 ng/mL | IC70 [3]: 0.1 ng/mL (≈ 0.145 nM) | IC50 ([4]; Homo sapiens, 96 h): 0.5 ng/mL (≈ 0.725 nM) | IC70 [4]: >1000 ng/mL | IC70 [5]: 6.0 ng/mL (≈ 8.7 nM) | IC50 ([5]; Homo sapiens, 96 h): 1 ng/mL (≈ 1.45 nM) | IC50 ([6]; Homo sapiens, 96 h): < 0.1 ng/mL | IC70 [6]: 2.0 ng/mL (≈ 2.9 nM) | IC50 ([7]; Homo sapiens, PC-3M, 96 h): 0.4 ng/mL (≈ 0.58 nM) | IC70 [7]: 3.0 ng/mL (≈ 4.35 nM) | IC50 ([8]; Homo sapiens, 96 h): 0.6 ng/mL (≈ 0.87 nM) | IC70 [8]: 17.0 ng/mL (≈ 24.6 nM) | activity in all cell lines as tested ([9]; 40 cell lines): concentration-dependent activity | tumor selectivity ([9]; 40 cell lines): remarkable level of tumor selectivity | Tumor selectivity: number of cell lines among the histotype with individual IC70 <mean IC70 ([9]; Bladder): 2 out of 3 and 2/3 | Tumor selectivity: number of cell lines among the histotype with individual IC70 <mean IC70 ([9]; Breast (mammary)): 2/3 and 3/3 | Tumor selectivity: number of cell lines among the histotype with individual IC70 <mean IC70 ([9]; Colon): 4/4 | IC50 ([9]; Homo sapiens, all 40 cell lines, read-out: IC50): < 1000 ng/mL | Tumor selectivity: number of cell lines among the histotype with individual IC70 <mean IC70 ([9]; Lung): 5/6 | Tumor selectivity: number of cell lines among the histotype with individual IC70 <mean IC70 ([9]; Melanoma): 2/3 | Tumor selectivity: number of cell lines among the histotype with individual IC70 <mean IC70 ([9]; Pleurameso): 1/3 | Tumor selectivity: number of cell lines among the histotype with individual IC70 <mean IC70 ([9]; Prostate): 2/4 | IC70 ([9]; all 4 colon cancer cell lines): ≤ 5 ng/mL | Mean IC70 ([9]; mean over panel of 40 human tumor cell lines): 9.1 ng/mL | IC50 ([9]; mean over panel of 40 human tumor cell lines, read-out: Mean IC50): 1.1 ng/mL (≈ 1.59 nM) | IC70 [10]: 5.0 ng/mL (≈ 7.25 nM) | IC50 ([10]; Homo sapiens, 96 h): 3 ng/mL (≈ 4.35 nM) | IC50 ([11]; Homo sapiens, 96 h): 3 ng/mL (≈ 4.35 nM) | IC70 [11]: 22.0 ng/mL (≈ 31.9 nM) | IC70 [12]: 0.9 ng/mL (≈ 1.3 nM) | IC50 ([12]; Homo sapiens, 96 h): 0.4 ng/mL (≈ 0.58 nM) | IC70 [13]: 0.6 ng/mL (≈ 0.87 nM) | IC50 ([13]; Homo sapiens, 96 h): < 0.1 ng/mL | IC50 ([14]; Homo sapiens, 96 h): 16 ng/mL (≈ 23.2 nM) | IC70 [14]: 39.0 ng/mL (≈ 56.5 nM) | IC50 ([15]; Homo sapiens, 96 h): < 0.1 ng/mL | IC70 [15]: 0.3 ng/mL (≈ 0.435 nM) | IC50 ([16]; Homo sapiens, 96 h): 7 ng/mL (≈ 10.1 nM) | IC70 [16]: 28.0 ng/mL (≈ 40.6 nM)
